What is called IC50 is the concentration that gives 50% inhibition. In general, Ki refers to the equilibrium dissociation constant of an inhibitor or competing ligand from its target. The melting point is the temperature, or range, at which the solid turns liquid.

Where “and” joins values, the source holds several entries; their conditions need not be identical. Equal entries are not always repeated. Where two headings read alike, the source gives them in different places.

Details of data set [1]: method as in doi:10.1021/ja00103a024. To be noted: in D2O, cited from earlier work.
The subject of a further data set is DapE. To be noted: cited from earlier work.
A further data set concerns the target HiDapE (Haemophilus influenzae, UniProt P44514). Kind of data set: DapE inhibition, ninhydrin-based assay. To be noted: for inhibition at 100 µM: 100 µM inhibitor, read-out: DapE % Inhib at 100 µM. Type of data set: biochemical. How it is done:
All compounds were screened for DapE inhibitory potency using a ninhydrin-based assay at 100 μM, and IC50 values were determined for molecules that inhibited DapE > 70% at 100 μM (Table 1). Some SAR trends emerge from the data.
Experimental IC50 curves for cyclobutanone inhibitors against DapE were identified as sigmoidal shaped response curves, as opposed to simple hyperbolic plots. […] IC50 curves with the corresponding Hill coefficients are reported in the Supplementary Materials as Figures S74−S81. Experimental Hill coefficients may provide information on the number of binding sites of a biological target (receptors and enzymes) interacting with ligands.
The inhibition of HiDapE by potential inhibitors was assessed using the previously developed ninhydrin assay with slight modifications. It was performed in a PCR Thermal Cycler System. All experiments were performed in triplicate in 50 mM HEPES buffer at pH 7.5. Reaction volumes were 100 µL of 2 mM N^6-Methyl-L,L-SDAP and 8 nM HiDapE. Ninhydrin was purchased as a 2% solution in 100% DMSO/lithium acetate buffer at pH 5.2. The inhibitor, followed by HiDapE, was added to a 50 mM HEPES (pH 7.5) buffered solution at 30 °C, and the mixture was incubated at 30 °C for 10 min. N^6-Methyl-L,L-SDAP was added, and the reaction mixture was incubated at 30 °C for 10 min, then heated to 99 °C for 1 min, and further cooled to 0 °C for 1 min. The 2% ninhydrin solution (50 µL) was added, and the mixture was thoroughly mixed. The reaction mixture was heated to 80 °C for 15 min, then cooled to 0 °C for 1 min. The absorbance of an 80 μL aliquot was recorded at 570 nm on a BioTek Synergy 2 microplate reader. All the inhibition assays of HiDapE were performed in triplicate and the IC50 values were obtained by fitting the data following the modified Hill equation: V = V0 + (Vmax − V0) XnH/(XnH0.5 + XnH) using the graphing suite Origin 9.1 with the Levenberg–Marquardt non-linear least-squares algorithm. The velocity in the absence of the substrate is […]; the velocity at saturating concentrations of the substrate or with no inhibitor for the inhibition assay is Vmax; X is the concentration of the substrate or inhibitor; and X0.5 is the substrate (S0.5) and inhibitor (I0.5) concentration at 50% maximum velocity and at 50% inhibition, respectively. The Hill coefficient is represented as nH.

Data set [2] has as its target H. influenzae DapE (HiDapE) (Haemophilus influenzae, UniProt P44514). The experiment in a line: Thermal shift assay (SYPRO Orange). Type of data set: binding. How it is done: A thermal shift assay was conducted to observe changes in the thermal stability of DapE under various concentrations of the inhibitor 3y, as summarized in Table 2. These studies were conducted on a Step One Real-Time PCR System and associated QuantStudio software (QuantStudio 5, Design and Analysis 2) through the fluorescence of the SYPRO Orange dye during protein denaturation. […] Upon addition of the inhibitor 3y, we observed a stabilization of the tertiary structure of the enzyme binding to the inhibitor, as indicated by a positive shift in the first melt temperature (Tm1). […] The thermal shift assay plot of Tm vs. log [3y (µM)] to determine the Ki of compound 3y is in the Supplementary Materials as Figure S82. […] Binding of a ligand most commonly leads to further stabilization of a protein, but destabilization as indicated by a lower Tm has been observed by others. Based on our previous work, [27] we observed sequential temperatures at which HiDapE was dissociating via circular dichroism: first at about 60 °C, which we hypothesize is the dimer dissociating, and a second at about 80 °C, which may represent denaturation of the monomer.
H. influenzae DapE was used at a final concentration of 200 nM and SYPRO Orange was used at a final concentration of 10×. It was performed in a Step One Real-Time PCR System (Applied Biosystems, Waltham, MA, USA). The experiment was carried out in 10 µL triplicates in 50 mM HEPES buffer at pH 7.5, nanopure water, and the inhibitor concentrations were based on the IC50 values of the inhibitor, 3y. Sample solutions were dispensed into a 96-well optical reaction plate (Thermo Fisher Scientific, Waltham, […], USA) and the plate was sealed with an optical PCR plate sheet (Thermo Fisher Scientific). […] Melting curves were obtained from the negative derivative and exported from the instrument into Excel. The negative melting temperatures were smoothed and differentiated to the negative third derivative. The Tm data were plotted against the log(concentration of 3y) with GraphPad Prism using a derived Van’t Hoff equation [39] to find the Ki value.

Data set [3] is described as follows: Cyclobutanone/hydrate equilibrium by NMR. In kind it is physicochemical. The source says: Cyclobutanone 3y is soluble in CDCl3, but we wanted to vary the amount of D2O, and water has a solubility of only 0.815% in chloroform, so varying the quantity of D2O would not alter the concentration of D2O in CDCl3 solution once saturation is reached. We therefore selected DMSO-d6 as the solvent to enable the varying of the D2O concentration, which also provides a more polar environment that is more conducive to hydrate formation and is a better mimic of the environment of the enzyme in aqueous media. The ratio of hydrate to ketone was determined by the ratio of the integrals of the proton alpha to the hydrate/carbonyl and the α-amino group, which was 4.67 ppm for the hydrate in DMSO-d6 + 20% D2O and 4.40 ppm for the cyclobutanone ketone in DMSO-d6 + 20% D2O.
Cyclobutanone 3y was massed to 2–3 mg and the exact mass was recorded. Compound 3y was then dissolved in the appropriate amount of deuterated solvent (DMSO-d6 or CDCl3) and vortexed. The appropriate amount of deuterium oxide (0%, 2%, 10%, 20%, or 30%) was added to the sample and the sample was vortexed. The sample was inserted into the Bruker 500 MHz NMR and data were collected for 64 scans. The raw data were analyzed with the Mnova NMR program, and the Keq was calculated via the method described by the Wiberg group.

Chain of H. influenzae DapE (HiDapE) (P44514 whole entry): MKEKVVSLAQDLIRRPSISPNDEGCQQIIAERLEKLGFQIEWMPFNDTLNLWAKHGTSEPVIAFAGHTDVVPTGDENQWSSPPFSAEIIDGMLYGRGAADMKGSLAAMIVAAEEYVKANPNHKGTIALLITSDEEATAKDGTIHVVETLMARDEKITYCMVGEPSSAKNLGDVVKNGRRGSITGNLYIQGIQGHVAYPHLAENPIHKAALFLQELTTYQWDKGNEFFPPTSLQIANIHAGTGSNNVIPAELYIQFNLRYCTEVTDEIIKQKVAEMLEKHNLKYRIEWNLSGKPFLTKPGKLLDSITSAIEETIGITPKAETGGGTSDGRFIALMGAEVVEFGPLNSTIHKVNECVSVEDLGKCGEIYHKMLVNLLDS
Chain of HiDapE (P44514 whole entry): as above

As to `O=C1CCC1` [Cyclobutanone, cyclobutanone], in data set [1], the “% Hydrate” value was 2.0% and the “Keq = [hydrate]/[ketone]” value is 2.8 × 10^−3. In data set [1] (listed as cyclobutanone), the “% Hydrate” value is listed as “about 2%”.
Turning to `C[C@H](CS)C(=O)N1CCC[C@H]1C(=O)O` [captopril], the DapE inhibition result with DapE is “low micromolar inhibitor”.
For the compound `COc1ccc(S(=O)(=O)N[C@@H](C(=O)NC2CCC2=O)C(C)C)cc1` (mixture of isomers) [3y, (2R)-2-((4-Methoxyphenyl)sulfonamido)-3-methyl-N-(2-oxocyclobutyl)butanamide], the melting point was 179 to 181 °C. For the same compound, at HiDapE, the inhibition at 100 µM came out at 99.7%. For the same compound, the half-maximal inhibitory concentration (IC50) on HiDapE (ninhydrin assay) is 23.1 ± 0.9 µM. In data set [2] (200 nM HiDapE + 1 μM 3y), the Tm1 is 49.6 +/− 0.18 °C and the Tm2 is 76.5 +/− 0.54 °C. Further, in data set [2] (200 nM HiDapE + 5 μM 3y), the Tm1 is 49.0 +/− 0.30 °C and the Tm2 was 77.3 +/− 0.20 °C. For the same compound, in data set [2] (200 nM HiDapE + 10 μM 3y), the Tm1 is 50.0 +/− 0.34 °C and the Tm2 was 77.3 +/− 0.23 °C. Further, in data set [2] (200 nM HiDapE + 20 μM 3y), the Tm1 was 51.2 +/− 0.13 °C and the Tm2 is 77.3 +/− 0.51 °C. In addition, in data set [2] (200 nM HiDapE + 30 μM 3y), the Tm1 was 52.1 +/− 0.5 °C and the Tm2 was 75.1 +/− 0.17 °C. Further, in data set [2] (200 nM HiDapE + 40 μM 3y), the Tm1 was 52.7 +/− 0.37 °C and the Tm2 is 75.2 +/− 0.11 °C. In addition, in data set [2] (200 nM HiDapE + 50 μM 3y), the Tm1 is 53.4 +/− 0.23 °C and the Tm2 is 74.7 +/− 0.40 °C. Besides, in data set [2] (200 nM HiDapE + 60 μM 3y), the Tm1 is 54.1 +/− 0.35 °C and the Tm2 is 75.1 +/− 0.23 °C. Besides, in data set [2] (200 nM HiDapE + 75 μM 3y), the Tm1 is 54.6 +/− 0.42 °C; the Tm2 was 75.7 °C and 75.7 +/− 0.29 °C. Besides, the Ki in data set [2] (from Tm1 vs log[3y], 200 nM HiDapE) stood at 10.2 µM. Moreover, the “% Hydrate” value in data set [3] (CDCl3 + 30% D2O) came out at 7.33%. Also, in data set [3] (CDCl3 + 30% D2O (saturated with D2O)), the “Keq = [hydrate]/[ketone]” value is recorded as 0.082. For the same compound, in data set [3] (DMSO-d6 + 2% D2O), the “% Hydrate” value came to 35.4% and the “Keq = [hydrate]/[ketone]” value is reported as 0.58. In data set [3] (DMSO-d6 + 10% D2O), the “% Hydrate” value worked out at 38.8% and the “Keq = [hydrate]/[ketone]” value was determined as 0.61. For the same compound, the “% Hydrate” value in data set [3] (DMSO-d6 + 20% D2O) stood at 40%.
`O=C(NC1CCC1=O)c1cccc2cccnc12` (centres unmarked) [3r, N-(2-Oxocyclobutyl)quinoline-8-carboxamide] showed a melting point of 89 to 91 °C. Further, the inhibition at 100 µM on HiDapE was less than 5%.
